Reference: US20210198277A1, “AMINE-SUBSTITUTED ARYL OR HETEROARYL COMPOUNDS” (Epizyme, Inc., priority 2016, published 2021)

Each compound was assayed against T1, EHMT2 (Homo sapiens, UniProt Q96KQ7) (assay: MDA-MB-231 H3K9me2 in-cell Western assay (EHMT2 ICW)). Details: Table II; MDA-MB-231 H3K9me2 in-cell Western; read-out: EHMT2 ICW (IC50 μM).
T1 construct: host or cells: MDA-MB-231
T1 sequence (Q96KQ7 1-1210): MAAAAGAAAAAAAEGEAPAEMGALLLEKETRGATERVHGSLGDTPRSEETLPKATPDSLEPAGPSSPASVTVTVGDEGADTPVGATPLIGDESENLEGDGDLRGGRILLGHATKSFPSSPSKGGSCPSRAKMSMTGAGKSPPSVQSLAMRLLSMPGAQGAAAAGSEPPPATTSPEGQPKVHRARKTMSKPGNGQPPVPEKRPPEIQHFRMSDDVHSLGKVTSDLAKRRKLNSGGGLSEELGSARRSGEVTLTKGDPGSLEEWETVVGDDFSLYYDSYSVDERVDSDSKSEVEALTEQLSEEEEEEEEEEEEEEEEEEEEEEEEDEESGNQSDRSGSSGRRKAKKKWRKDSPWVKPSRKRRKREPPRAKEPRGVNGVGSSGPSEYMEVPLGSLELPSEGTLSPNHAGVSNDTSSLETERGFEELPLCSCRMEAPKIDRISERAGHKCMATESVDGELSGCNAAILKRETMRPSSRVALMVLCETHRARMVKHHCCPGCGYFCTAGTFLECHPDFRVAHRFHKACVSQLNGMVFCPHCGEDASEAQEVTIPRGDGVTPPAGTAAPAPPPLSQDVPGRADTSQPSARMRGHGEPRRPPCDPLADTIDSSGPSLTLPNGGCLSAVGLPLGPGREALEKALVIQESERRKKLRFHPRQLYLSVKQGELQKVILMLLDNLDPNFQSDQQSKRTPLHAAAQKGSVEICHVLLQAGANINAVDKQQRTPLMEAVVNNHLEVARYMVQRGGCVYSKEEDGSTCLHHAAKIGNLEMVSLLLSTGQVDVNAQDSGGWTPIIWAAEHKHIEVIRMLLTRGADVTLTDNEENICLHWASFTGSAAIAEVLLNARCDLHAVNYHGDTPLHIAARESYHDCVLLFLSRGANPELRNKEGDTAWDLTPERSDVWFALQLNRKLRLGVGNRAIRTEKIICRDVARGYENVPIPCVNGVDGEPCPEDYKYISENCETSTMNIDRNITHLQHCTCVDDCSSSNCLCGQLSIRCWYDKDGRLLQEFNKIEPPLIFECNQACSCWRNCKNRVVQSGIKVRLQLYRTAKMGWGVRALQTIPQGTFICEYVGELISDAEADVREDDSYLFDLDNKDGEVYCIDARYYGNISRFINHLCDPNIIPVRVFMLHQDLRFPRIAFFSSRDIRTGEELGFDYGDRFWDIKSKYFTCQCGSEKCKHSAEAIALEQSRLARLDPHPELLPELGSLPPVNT
Assay type: cell-based
Procedure, shortened: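 Cells seeded at 3,000/well onto pre-dispensed compound; 30 min RT, then 48 h 37 °C/5% CO2. PFA fix, block, α-H3K9me2 1:800 o/n 4 °C, 800CW secondary + DRAQ5. Odyssey scan 700/800 nm; ratio → % inhibition → 4-parameter IC50.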

Row | SMILES | IC50 [µM]
1 | CNc1ccnc(Nc2ccc(OC)c(OCCCN3CCCC3)c2)n1 [Compound 1, N^2-(4-methoxy-3-(3-(pyrrolidin-1-yl)propoxy)phenyl)-N^4-methylpyrimidine-2,4-diamine] | < 0.1
2 | COc1ccc(Nc2nccc(NCC3CCN(CC(F)F)CC3)n2)cc1OCCCN1CCCC1 [Compound 2, N^4-((1-(2,2-difluoroethyl)piperidin-4-yl)methyl)-N^2-(4-methoxy-3-(3-(pyrrolidin-1-yl)propoxy)phenyl)pyrimidine-2,4-diamine] | 0.1 to 1
3 | COc1ccc(Nc2nccc(NCC3CCN(CC(F)(F)F)CC3)n2)cc1OCCCN1CCCC1 [Compound 4, N^2-(4-methoxy-3-(3-(pyrrolidin-1-yl)propoxy)phenyl)-N^4-((1-(2,2,2-trifluoroethyl)piperidin-4-yl)methyl)pyrimidine-2,4-diamine] | 0.1 to 1
4 | COc1ccc(Nc2nccc(NC3CCOCC3)n2)cc1OCCCN1CCCC1 [Compound 5, N^2-(4-methoxy-3-(3-(pyrrolidin-1-yl)propoxy)phenyl)-N^4-(tetrahydro-2H-pyran-4-yl)pyrimidine-2,4-diamine] | 0.1 to 1
5 | COc1ccc(Nc2nccc(NCC(=O)N3CCOCC3)n2)cc1OCCCN1CCCC1 [Compound 51] | 1 to 10
6 | COc1ccc(Nc2nccc(NCC(=O)N(C)c3ccccc3)n2)cc1OCCCN1CCCC1 [Compound 52] | 1 to 10
7 | COc1ccc(Nc2nccc(N(C)Cc3ccncc3)n2)cc1OCCCN1CCCC1 [Compound 56] | 1 to 10
8 | COc1ccc(Nc2nccc(NCC3CCN(C(C)=O)CC3)n2)cc1COCCN1CC(F)C1 [Compound 57] | 1 to 10
9 | COc1ccc(Nc2nccc(NCC3CCNCC3)n2)cc1OCCCN1CCCC1 [Compound 90] | > 10

Now from value to compound:

Row | IC50 [µM] | SMILES
10 | 0.1 to 1 | COc1ccc(Nc2nccc(NCC3CCOCC3)n2)cc1OCCCN1CCCC1 [Compound 3, N^2-(4-methoxy-3-(3-(pyrrolidin-1-yl)propoxy)phenyl)-N^4-((tetrahydro-2H-pyran-4-yl)methyl)pyrimidine-2,4-diamine]
11 | 1 to 10 | COc1ccc(Nc2nccc(N3Cc4cn[nH]c4C3)n2)cc1OCCCN1CCCC1 [Compound 53]
12 | 1 to 10 | COc1ccc(Nc2nccc(NC3CCN(C(C)=O)CC3)n2)cc1OCCCN1CCCC1 [Compound 54]
13 | 1 to 10 | COc1ccc(Nc2ncc(C)c(NCC3CCN(C(C)=O)CC3)n2)cc1OCCCN1CCCC1 [Compound 55]
14 | 1 to 10 | c1cc(Nc2nccc(NCC3CCNCC3)n2)cc(OCCCN2CCCC2)c1 [Compound 88]

Same assay, conditions: Table III; MDA-MB-231 H3K9me2 in-cell Western; read-out: EHMT2 ICW (IC50 μM)

Row | SMILES | IC50 [µM]
15 | CNc1ccnc(Nc2ccc(OC)c(OC[C@@H](O)CN3CCCC3)c2)n1 (single isomer, unassigned) [Compound 377] | > 10
16 | CNc1ccnc(Nc2ccc(OC)c(OCC3CCN(C)C3)c2)n1 (single isomer, unassigned) [Compound 415] | 1 to 10
17 | CNc1ccnc(Nc2ccc(OC)c(OCC3CCN(C)C3)c2)n1 (single isomer, unassigned) [Compound 416] | 0.1 to 1
18 | CNc1cc(C)nc(Nc2ccc(OC)c(OCC3CCN(C)C3)c2)n1 (single isomer, unassigned) [Compound 417] | 1 to 10
19 | CNc1cc(OC)nc(Nc2ccc(OC)c(OCCCN3CCCC3)c2)n1 [Compound 261, 6-methoxy-N^2-(4-methoxy-3-(3-(pyrrolidin-1-yl)propoxy)phenyl)-N^4-methylpyrimidine-2,4-diamine] | > 10
20 | CNc1ccnc(Nc2ccc3c(c2)C(=O)N(CCN2CCCC2)CC3)n1 [Compound 264, 7-((4-(methylamino)pyrimidin-2-yl)amino)-2-(2-(pyrrolidin-1-yl)ethyl)-3,4-dihydroisoquinolin-1(2H)-one] | > 10
21 | COc1ccc(Nc2cccc3[nH]ccc23)cc1OCCCN1CCCC1 [Compound 265, N-(4-methoxy-3-(3-(pyrrolidin-1-yl)propoxy)phenyl)-1H-indol-4-amine] | > 10
22 | CNc1cc(C)nc(Nc2ccc(F)c(OCCCN3CCCC3)c2)n1 [Compound 356] | > 10
23 | CNc1nc(Nc2ccc(OC)c(OCCCN3CCCC3)c2)ncc1C#N [Compound 357] | > 10
24 | CNc1ncc(C(F)(F)F)c(Nc2ccc(OC)c(OCCCN3CCCC3)c2)n1 [Compound 359] | > 10
25 | CNc1nc(Nc2ccc(OC)c(OCCCN3CCCC3)c2)nc(C)c1F [Compound 360] | 0.1 to 1
26 | CCc1cc(NC)nc(Nc2ccc(OC)c(OCCCN3CCCC3)c2)n1 [Compound 364] | 0.1 to 1
27 | COc1ccc(Nc2nccc(CNC3CCOCC3)n2)cc1OCCCNc1ccccc1 [Compound 365] | > 10
28 | CNc1ccnc(Nc2ccc(F)c(OCCCN3CCCC3)c2)n1 [Compound 368] | > 10
29 | CNc1cncc(Nc2ccc(OC)c(OCCCN3CCCC3)c2)n1 [Compound 371] | > 10
30 | CNc1cc(Nc2cc(OCCCN3CCCC3)c(OC)cn2)ccn1 [Compound 372] | 0.1 to 1
31 | COc1ccc(Nc2nccc3[nH]ncc23)cc1OCCCN1CCCC1 [Compound 373] | > 10
32 | COc1ccc(Nc2ccnc3[nH]ccc23)cc1OCCCN1CCCC1 [Compound 374] | > 10
33 | CC(C)Nc1ccnc(Nc2cccc(OCCCN3CC[C@@H](F)C3)c2)n1 [Compound 375] | > 10
34 | CNc1ccnc(Nc2ccc(OC)c(OCCCN3CCCC3)c2)c1 [Compound 379] | 1 to 10
35 | CNc1ccnc(Nc2ccc3ccn(CCN4CCCC4)c(=O)c3c2)n1 [Compound 381] | > 10
36 | CNc1ccnc(Nc2ccc(OC)c(COCCN3CCCC3)c2)n1 [Compound 382] | 0.1 to 1
37 | CNc1ccnc(Nc2cccc(COCCN3CCCC3)c2)n1 [Compound 383] | > 10
38 | CNc1cc(C#N)nc(Nc2ccc(OC)c(OCCCN3CCCC3)c2)n1 [Compound 384] | > 10
39 | CCc1cc(NC)nc(Nc2ccc(OC)c(OCCCN3CC[C@@H](F)C3)c2)n1 [Compound 385] | 1 to 10
40 | CNc1ccnc(Nc2ccc3cnn(CCN(C)C)c3c2)n1 [Compound 386] | > 10
41 | CNc1ccnc(Nc2ccc(OC)c(OCCCN(C)C)c2)n1 [Compound 387] | 0.1 to 1
42 | CNc1ccnc(Nc2ccc3cnn(CCCN(C)C)c3c2)n1 [Compound 388, N^2-(1-(3-(dimethylamino)propyl)-1H-indazol-6-yl)-N^4-methylpyrimidine-2,4-diamine] | > 10
43 | CNc1ccnc(Nc2ccc(OC)c(OCCCN3CCCCC3)c2)n1 [Compound 390] | 0.1 to 1

Other lines, results leading:

Row | IC50 [µM] | SMILES
44 | 1 to 10 | CNc1ccnc(Nc2ccc(OC)c(OC[C@H](O)CN3CCCC3)c2)n1 (single isomer, unassigned) [Compound 376]
45 | < 0.1 | CNc1cc(C)nc(Nc2ccc(OC)c(OCC3CCN(C)C3)c2)n1 (single isomer, unassigned) [Compound 418]
46 | 1 to 10 | COc1ccc(Nc2nccc3[nH]ccc23)cc1OCCCN1CCCC1 [Compound 266, N-(4-methoxy-3-(3-(pyrrolidin-1-yl)propoxy)phenyl)-1H-pyrrolo[3,2-c]pyridin-4-amine]
47 | 0.1 to 1 | CNc1nccc(Nc2ccc(OC)c(OCCCN3CCCC3)c2)n1 [Compound 355]
48 | > 10 | CNc1nc(Nc2ccc(OC)c(OCCCN3CCCC3)c2)ncc1C(F)(F)F [Compound 358]
49 | > 10 | CNc1ccnc(Nc2ccc(OC)c(OCCN3CCOCC3)c2)n1 [Compound 361]
50 | > 10 | CNc1cc(C(F)(F)F)nc(Nc2ccc(OC)c(OCCCN3CCCC3)c2)n1 [Compound 362]
51 | > 10 | CNc1ccnc(Nc2ccc3c(c2)N(C(=O)CCN(C)C)CC3)n1 [Compound 363]
52 | > 10 | COc1ccc(Nc2cnnc(NCC3CCN(C(C)=O)CC3)c2)cc1OCCCN1CCCC1 [Compound 366]
53 | > 10 | COc1ccc(Nc2nccc(NCC3CCOCC3)n2)cc1OC1CC2(C1)CN(C)C2 [Compound 367]
54 | 1 to 10 | COc1ccc(Nc2nccc(N)n2)cc1OCCCN1CCCC1 [Compound 369]
55 | > 10 | CNc1cnnc(Nc2ccc(OC)c(OCCCN3CCCC3)c2)c1 [Compound 370]
56 | 0.1 to 1 | COc1ccc(Nc2nccc(NC(C)C3CCOCC3)n2)cc1OCCCN1CCCC1 (stereo not drawn) [Compound 378]
57 | > 10 | CNc1ccnc(Nc2ccc3c(C)nn(CCCN(C)C)c3c2)n1 [Compound 389]
